Measurements taken from ChEMBL document CHEMBL1201862, “PubChem BioAssay data set” (2004).
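A five-concentration, 48-hour dose response in 96-well plates underlies each endpoint, interpolated linearly between surrounding concentrations. Abbreviation: GI50, concentration required for 50% inhibition of growth.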 Active and inactive are the calls of the source. Rule as the data show it: active = GI50 up to about 1.1 µM and inactive = higher.

Assays:
Assay in all cases: NCI-60 cell line screen, 48 h
OVCAR-3 = test system: OVCAR-3
ACHN = test system: ACHN
MDA-N = test system: MDA-N
SK-MEL-28 = test system: SK-MEL-28
HCC 2998 = test system: HCC 2998
CAKI-1 = test system: CAKI-1
OVCAR-8 = test system: OVCAR-8
LOX IMVI = test system: LOX IMVI
SF-295 = test system: SF-295
SW-620 = test system: SW-620
NCI-H226 = test system: NCI-H226
HOP-62 = test system: HOP-62
UACC-62 = test system: UACC-62
SR = test system: SR
HT-29 = test system: HT-29
NCI/ADR-RES = test system: NCI/ADR-RES
NCI-H460 = test system: NCI-H460
IGROV-1 = test system: IGROV-1
SF-539 = test system: SF-539
NCI-H23 = test system: NCI-H23
UO-31 = test system: UO-31
PC-3 = test system: PC-3
MDA-MB-231 = test system: MDA-MB-231
HL-60 = test system: HL-60
SNB-75 = test system: SNB-75
SF-268 = test system: SF-268
DU-145 = test system: DU-145
RPMI-8226 = test system: RPMI-8226
M14 = test system: M14
SK-MEL-5 = test system: SK-MEL-5
T47D = test system: T47D
K562 = test system: K562
MDA-MB-435 = test system: MDA-MB-435
786-0 = test system: 786-0
HCT-116 = test system: HCT-116
Hs-578T = test system: Hs-578T
SK-MEL-2 = test system: SK-MEL-2
A498 = test system: A498
HOP-92 = test system: HOP-92
UACC-257 = test system: UACC-257
A549 = test system: A549
OVCAR-4 = test system: OVCAR-4
Malme-3M = test system: Malme-3M
CCRF-CEM = test system: CCRF-CEM
HCT-15 = test system: HCT-15
EKVX = test system: EKVX
COLO 205 = test system: COLO 205
SNB-19 = test system: SNB-19
KM12 = test system: KM12
RXF 393 = test system: RXF 393
OVCAR-5 = test system: OVCAR-5
TK-10 = test system: TK-10
NCI-H522 = test system: NCI-H522
MOLT-4 = test system: MOLT-4
U-251 = test system: U-251
SN12C = test system: SN12C
MCF7 = test system: MCF7
SK-OV-3 = test system: SK-OV-3

Measured: GI50

Cc1cc(CC(O)(C(F)(F)F)C(F)(F)F)cc(CC(O)(C(F)(F)F)C(F)(F)F)n1
inactive: ACHN 2.79 µM | MDA-N 3.88 µM | SK-MEL-28 3.03 µM | HCC 2998 4.23 µM | CAKI-1 > 100 µM | OVCAR-8 3.48 µM | LOX IMVI 2.42 µM | SF-295 3.06 µM | SW-620 > 100 µM | NCI-H226 2.72 µM | HOP-62 3.33 µM | UACC-62 3.57 µM | SR 4.08 µM | HT-29 2.58 µM | NCI/ADR-RES 1.87 µM | NCI-H460 2.04 µM | IGROV-1 3.46 µM | SF-539 3.43 µM | NCI-H23 2.51 µM | UO-31 2.05 µM | PC-3 2.9 µM | MDA-MB-231 3.23 µM | HL-60 3.02 µM | SNB-75 2.31 µM | SF-268 2.7 µM | DU-145 2.74 µM | RPMI-8226 1.61 µM | M14 3.71 µM | SK-MEL-5 1.72 µM | T47D 2.67 µM | K562 4.28 µM | MDA-MB-435 2.88 µM | 786-0 2.29 µM | HCT-116 2.34 µM | Hs-578T 2.67 µM | SK-MEL-2 2.44 µM | A498 2.76 µM | HOP-92 2.55 µM | UACC-257 2.89 µM | A549 3.3 µM | OVCAR-4 3.47 µM | Malme-3M 1.56 µM | CCRF-CEM 3.21 µM | EKVX 2.89 µM | COLO 205 1.87 µM | SNB-19 > 100 µM | KM12 2.27 µM | RXF 393 4.24 µM | OVCAR-5 6.79 µM | TK-10 4.7 µM | NCI-H522 2.36 µM | MOLT-4 3.24 µM | U-251 3.3 µM | SN12C 3.1 µM
4.08 µM: HCT-15
active: OVCAR-3 1.01 µM

O=C1c2c(O)ccc(O)c2C(=O)c2c(NCCNCCO)ccc(NCCNCCO)c21 [MITOXANTRONE]
active: SF-539 < 0.01 µM | SK-MEL-5 0.0719 µM | K562 0.0741 µM | MDA-MB-435 0.259 µM | HCT-116 0.0373 µM | A498 0.112 µM | HOP-92 0.0355 µM | UACC-257 0.995 µM | A549 < 0.01 µM

C/C(=N\Nc1nc2ccccc2[nH]1)c1ncccn1
inactive: HOP-62 1.64 µM | PC-3 1.92 µM | Hs-578T 12.1 µM | SK-MEL-2 2.01 µM | TK-10 1.31 µM
0.0302 µM: HCT-15
active: OVCAR-3 0.871 µM | ACHN < 0.0232 µM | MDA-N 0.388 µM | SK-MEL-28 0.0948 µM | HCC 2998 0.721 µM | CAKI-1 < 0.0224 µM | OVCAR-8 0.043 µM | LOX IMVI 0.047 µM | SF-295 0.0453 µM | SW-620 0.0344 µM | NCI-H226 0.0422 µM | UACC-62 0.0693 µM | SR < 0.021 µM | HT-29 0.0236 µM | NCI/ADR-RES 0.0608 µM | NCI-H460 0.0299 µM | IGROV-1 < 0.031 µM | SF-539 0.0172 µM | NCI-H23 0.0621 µM | UO-31 < 0.0202 µM | MDA-MB-231 0.059 µM | HL-60 < 0.01 µM | SNB-75 0.119 µM | SF-268 0.0382 µM | RPMI-8226 0.0585 µM | M14 0.0417 µM | SK-MEL-5 0.0574 µM | T47D 0.0215 µM | K562 0.044 µM | MDA-MB-435 0.0968 µM | MCF7 0.0321 µM | 786-0 0.0238 µM | HCT-116 0.0226 µM | A498 0.0851 µM | HOP-92 0.0552 µM | UACC-257 0.136 µM | A549 0.0682 µM | OVCAR-4 0.0528 µM | SK-OV-3 0.214 µM | Malme-3M < 0.0243 µM | CCRF-CEM 0.0303 µM | EKVX 0.026 µM | COLO 205 < 0.0197 µM | SNB-19 0.0879 µM | KM12 0.136 µM | RXF 393 0.0771 µM | OVCAR-5 0.735 µM | NCI-H522 < 0.0164 µM | MOLT-4 < 0.01 µM | U-251 0.0462 µM | SN12C 0.0715 µM

COc1cc([C@@H]2c3cc4c(cc3[C@@H](NC(=O)NO)[C@H]3COC(=O)[C@H]23)OCO4)cc(OC)c1O
3.8 µM: HCT-15
inactive: MDA-N 2.15 µM | CAKI-1 6.31 µM | LOX IMVI 4.58 µM | SW-620 6.19 µM | HOP-62 5.37 µM | SR 9.12 µM | HT-29 5.19 µM | NCI/ADR-RES 12.7 µM | NCI-H460 4.42 µM | IGROV-1 3.25 µM | SF-539 3.6 µM | PC-3 4.91 µM | MDA-MB-231 4.42 µM | HL-60 3.72 µM | SF-268 61.5 µM | RPMI-8226 4.03 µM | T47D > 100 µM | K562 3.1 µM | MDA-MB-435 2.29 µM | 786-0 4.98 µM | HCT-116 4.84 µM | SK-MEL-2 4.38 µM | A498 14 µM | HOP-92 > 100 µM | UACC-257 > 100 µM | OVCAR-4 > 100 µM | CCRF-CEM 12.7 µM | EKVX 7.45 µM | COLO 205 5.3 µM | SNB-19 > 100 µM | TK-10 > 100 µM | NCI-H522 > 100 µM | U-251 6.9 µM | SN12C 4.71 µM

CC1=CC(c2ccccc2)OP1(=O)c1ccccc1 (centres undefined)
inactive: OVCAR-3 > 100 µM | ACHN > 100 µM | MDA-N > 100 µM | SK-MEL-28 > 100 µM | HCC 2998 > 100 µM | CAKI-1 > 100 µM | OVCAR-8 > 100 µM | LOX IMVI > 100 µM | SF-295 > 100 µM | SW-620 > 100 µM | NCI-H226 > 100 µM | HOP-62 > 100 µM | UACC-62 > 100 µM | SR > 100 µM | HT-29 > 100 µM | NCI/ADR-RES > 100 µM | NCI-H460 > 100 µM | IGROV-1 > 100 µM | SF-539 > 100 µM | NCI-H23 > 100 µM | PC-3 > 100 µM | HL-60 > 100 µM | SNB-75 > 100 µM | SF-268 > 100 µM | DU-145 > 100 µM | M14 > 100 µM | SK-MEL-5 > 100 µM | T47D > 100 µM | K562 > 100 µM | MDA-MB-435 > 100 µM | MCF7 > 100 µM | 786-0 > 100 µM | HCT-116 > 100 µM | Hs-578T > 100 µM | SK-MEL-2 > 100 µM | A498 > 100 µM | HOP-92 > 100 µM | UACC-257 > 100 µM | A549 > 100 µM | OVCAR-4 > 100 µM | SK-OV-3 > 100 µM | Malme-3M > 100 µM | EKVX > 100 µM | COLO 205 > 100 µM | SNB-19 > 100 µM | KM12 > 100 µM | OVCAR-5 > 100 µM | TK-10 > 100 µM | NCI-H522 > 100 µM | U-251 > 100 µM | SN12C > 100 µM
> 100 µM: HCT-15

NC(=O)CCC(NC(=O)c1cccc2c(=O)c3ccccc3[nH]c12)C(=O)O (centres undefined)
> 100 µM: HCT-15
inactive: OVCAR-3 > 100 µM | ACHN > 100 µM | MDA-N > 100 µM | SK-MEL-28 > 100 µM | OVCAR-8 > 100 µM | LOX IMVI > 100 µM | SF-295 > 100 µM | SW-620 > 100 µM | NCI-H226 > 100 µM | HOP-62 > 100 µM | UACC-62 > 100 µM | SR > 100 µM | HT-29 > 100 µM | NCI/ADR-RES > 100 µM | IGROV-1 > 100 µM | NCI-H23 > 100 µM | UO-31 > 100 µM | PC-3 > 100 µM | MDA-MB-231 > 100 µM | HL-60 > 100 µM | SNB-75 > 100 µM | SF-268 > 100 µM | DU-145 > 100 µM | RPMI-8226 > 100 µM | M14 > 100 µM | SK-MEL-5 > 100 µM | K562 > 100 µM | MDA-MB-435 > 100 µM | MCF7 > 100 µM | 786-0 > 100 µM | HCT-116 > 100 µM | Hs-578T > 100 µM | SK-MEL-2 > 100 µM | A498 > 100 µM | HOP-92 77.3 µM | A549 > 100 µM | OVCAR-4 > 100 µM | SK-OV-3 > 100 µM | Malme-3M > 100 µM | EKVX > 100 µM | COLO 205 > 100 µM | SNB-19 > 100 µM | KM12 > 100 µM | OVCAR-5 > 100 µM | TK-10 > 100 µM | NCI-H522 > 100 µM | MOLT-4 > 100 µM | U-251 > 100 µM | SN12C > 100 µM
